Columns and labels:
Type in all cases: in vivo
[1] = tested on: Amaranthus retroflexus (AMARE); test: Post-emergence efficacy, Amaranthus retroflexus; settings: 13 DAA
Text: (§1) When active ingredients are combined, the activity to be expected (E) for any given active ingredient combination obeys the so-called Colby Formula and can be calculated as follows (Colby, S. R., Calculating synergistic and antagonistic responses of herbicide combination, Weeds, Vol. 15, pages 20-22; 1967): • ppm=milligrams of active ingredient (a.i.) per litre • X=% action by first active ingredient using p ppm of the active ingredient • Y=% action by second active ingredient using q ppm of the active ingredient.
(§2) According to Colby, the expected action of active ingredients A+B using p+q ppm of active ingredient is represented by the following formula: […]
If the action actually observed (O) is greater than the expected action E then the action of the combination is super-additive, i.e. there is a synergistic effect. […]
(§3) The efficacy of various compositions of the present invention were tested against plants including the following species: Amaranthus retroflexus (AMARE) Cenchrus echinatus (CCHEC), Echinochloa crus-gali (ECHCG), Eleusine indica (ELEIN), Setaria faberi (SETFA) Sorghum halapense (SORHA) and Digitaria insularis (TRCIN). The compositions are applied post-emergence, and the tests evaluated at certain days-after-application (DAA) as indicated. The tests were evaluated (100=total damage to plant; 0=no damage to plant), and the results are shown below in tables B1 to B13.

[2] = tested on: Echinochloa crus-gali (ECHCG); test: Post-emergence efficacy, Echinochloa crus-gali
Text: as §1, §2
(§4) If the action actually observed (O) is greater than the expected action E then the action of the combination is super-additive, i.e. there is a synergistic effect. In mathematical terms, synergism corresponds to a positive value for the difference of (O−E). In the case of purely complementary addition of activities (expected activity), said difference (O−E) is zero. A negative value of said difference (O−E) signals a loss of activity compared to the expected activity.
as §3

[3] = tested on: Digitaria insularis (TRCIN); test: Post-emergence efficacy, Digitaria insularis
Text: as §1, §2, §4, §3

[4] = tested on: Eleusine indica (ELEIN); test: Post-emergence efficacy, Eleusine indica; settings: 15 DAA
Text: as §1, §2, §4, §3

[5] = tested on: Sorghum halapense (SORHA); test: Post-emergence efficacy, Sorghum halapense; settings: 15 DAA
Text: as §1, §2, §4, §3

[6] = tested on: Setaria faberi (SETFA); test: Post-emergence efficacy, Setaria faberi; settings: 15 DAA
Text: as §1, §2, §4, §3

[7] = tested on: Cenchrus echinatus (CCHEC); test: Post-emergence efficacy, Cenchrus echinatus; settings: 14 DAA
Text: as §1, §2, §4, §3

SMILES: CCOC(=O)C(Cl)Cc1cc(-n2nc(C)n(C(F)F)c2=O)c(F)cc1Cl (stereo not drawn) [Compound B3b, carfentrazone-ethyl, reference compound]
- Observed (100=total damage to plant; 0=no damage) ([1]; rate 3.75 g/ha): 75

SMILES: COC(=O)CCNC(=O)C(C)Sc1cc(-n2c(=O)cc(C(F)(F)F)n(C)c2=O)c(F)cc1Cl (stereo not drawn) [Compound B3j, tiafenacil, reference compound]
- Observed (100=total damage to plant; 0=no damage) ([2]; Table B10, POST, 15 DAA, rate 8 g/ha): 40
- Observed (100=total damage to plant; 0=no damage) ([2]; Table B10, POST, 15 DAA, rate 16 g/ha): 55

SMILES: CS(=O)(=O)NC(=O)c1cc(Oc2ccc(C(F)(F)F)cc2Cl)ccc1[N+](=O)[O-] [Compound B3e, fomesafen, reference compound]
- Observed (100=total damage to plant; 0=no damage) ([3]; Table B8, POST, 14 DAA, rate 7.5 g/ha): 15
- Observed (100=total damage to plant; 0=no damage) ([3]; Table B8, POST, 14 DAA, rate 15 g/ha): 20
- Observed (100=total damage to plant; 0=no damage) ([3]; Table B8, POST, 14 DAA, rate 30 g/ha): 35

SMILES: CCOC(=O)COc1ncccc1Oc1cc(-n2c(=O)cc(C(F)(F)F)n(C)c2=O)c(F)cc1Cl [Compound B3c, epyrifenacil, reference compound]
- Observed (100=total damage to plant; 0=no damage) ([4]; rate 25 g/ha (B3c)): 16
- Observed (100=total damage to plant; 0=no damage) ([3]; POST, 16 DAA, rate 1 g/ha): 33

SMILES: Cc1nn(-c2cc(NS(C)(=O)=O)c(Cl)cc2Cl)c(=O)n1C(F)F [Compound B3i, sulfentrazone, reference compound]
- Observed (100=total damage to plant; 0=no damage) ([5]; rate 60 g/ha): 13

SMILES: C#CCN1C(=O)C(F)(F)Oc2cc(F)c(-n3c(=O)n(C)c(=S)n(C)c3=O)cc21 [Compound B3k, trifludimoxazin, reference compound]
- Observed (100=total damage to plant; 0=no damage) ([2]; Table B11, POST, 20 DAA, rate 4 g/ha): 38
- Observed (100=total damage to plant; 0=no damage) ([2]; Table B11, POST, 20 DAA, rate 30 g/ha): 31

SMILES: O=C(O)CC[n+]1ccc(-c2cccnn2)cn1.[Cl-] [Compound B4c.27]
- Observed (100=total damage to plant; 0=no damage) ([6]; rate 37.5 g/ha): 37

SMILES: O=C(O)CNCP(=O)(O)O [Compound B2c, glyphosate, reference compound]
- Observed (100=total damage to plant; 0=no damage) ([7]; rate 125 g/ha): 1

SMILES: C#CCN1C(=O)COc2cc(F)c(N3C(=O)C4=C(CCCC4)C3=O)cc21 [Compound B3d, flumioxazin, reference compound]
- Observed (100=total damage to plant; 0=no damage) ([2]; Table B7, POST, 20 DAA, rate 4 g/ha): 8
- Observed (100=total damage to plant; 0=no damage) ([2]; Table B7, POST, 20 DAA, rate 15 g/ha): 49

SMILES: CCOC(=O)C1(C)CC(c2cc(-n3c(=O)cc(C(F)(F)F)n(C)c3=O)c(F)cc2Cl)=NO1 (stereo not drawn) [Compound B3l, 3-(2-chloro-4-fluoro-5-(3-methyl-2,6-dioxo-4-trifluoromethyl-3,6-dihydropyrimidin-1(2H)-yl)phenyl)-5-methyl-4,5-dihydroisoxazole-5-carboxylic acid ethyl ester, reference compound]
- Observed (100=total damage to plant; 0=no damage) ([2]; Table B12, POST, 13 DAA, rate 0.94 g/ha (B3l)): 33
- Observed (100=total damage to plant; 0=no damage) ([2]; Table B12, POST, 13 DAA, rate 3.75 g/ha): 73

SMILES: c1cc[n+]2c(c1)-c1cccc[n+]1CC2 [Compound B4b1, diquat dibromide, reference compound]
- Observed (100=total damage to plant; 0=no damage) ([2]; Table B13, POST, 15 DAA, rate 60 g/ha): 43

SMILES: CC#Cc1ccc(C2=C(OC(=O)OC)C3CCC(C3)C2=O)c(OC)c1 (stereo not drawn) [Ic]
- Observed (100=total damage to plant; 0=no damage) ([1]; rate 7.5 g/ha): 4
- Observed (100=total damage to plant; 0=no damage) ([5]; rate 3.125 g/ha): 28
- Observed (100=total damage to plant; 0=no damage) ([5]; rate 6.25 g/ha): 45
- Observed (100=total damage to plant; 0=no damage) ([5]; rate 12.5 g/ha): 75
- Observed (100=total damage to plant; 0=no damage) ([6]; rate 3 g/ha): 10
- Observed (100=total damage to plant; 0=no damage) ([6]; rate 6 g/ha): 29
- Observed (100=total damage to plant; 0=no damage) ([7]; rate 3 g/ha): 50
- Observed (100=total damage to plant; 0=no damage) ([7]; rate 6 g/ha): 72
- Observed (100=total damage to plant; 0=no damage) ([7]; rate 12.5 g/ha): 79
- Observed (100=total damage to plant; 0=no damage) ([7]; rate 25 g/ha): 79
- Observed (100=total damage to plant; 0=no damage) ([4]; rate 12.5 g/ha): 72
- Observed (100=total damage to plant; 0=no damage) ([4]; rate 25 g/ha (Ic)): 79
- Observed (100=total damage to plant; 0=no damage) ([2]; Table B7, POST, 20 DAA, rate 3.125 g/ha): 14
- Observed (100=total damage to plant; 0=no damage) ([2]; Table B7, POST, 20 DAA, rate 25 g/ha): 87
- Observed (100=total damage to plant; 0=no damage) ([2]; Table B10, POST, 15 DAA, rate 3.125 g/ha): 45
- Observed (100=total damage to plant; 0=no damage) ([2]; Table B10, POST, 15 DAA, rate 6.25 g/ha): 50
- Observed (100=total damage to plant; 0=no damage) ([2]; Table B10, POST, 15 DAA, rate 12.5 g/ha): 60
- Observed (100=total damage to plant; 0=no damage) ([2]; Table B11, POST, 20 DAA, rate 3.125 g/ha): 14
- Observed (100=total damage to plant; 0=no damage) ([2]; Table B12, POST, 13 DAA, rate 0.94 g/ha (Ic)): 3
- Observed (100=total damage to plant; 0=no damage) ([2]; Table B12, POST, 13 DAA, rate 1.88 g/ha): 24
- Observed (100=total damage to plant; 0=no damage) ([2]; Table B12, POST, 13 DAA, rate 7.5 g/ha): 54
- Observed (100=total damage to plant; 0=no damage) ([2]; Table B13, POST, 15 DAA, rate 3.125 g/ha): 45
- Observed (100=total damage to plant; 0=no damage) ([2]; Table B13, POST, 15 DAA, rate 6.25 g/ha): 50
- Observed (100=total damage to plant; 0=no damage) ([2]; Table B13, POST, 15 DAA, rate 12.5 g/ha): 60
- Observed (100=total damage to plant; 0=no damage) ([3]; POST, 14 DAA, rate 100 g/ha): 5
- Observed (100=total damage to plant; 0=no damage) ([3]; POST, 16 DAA, rate 3.125 g/ha): 15
- Observed (100=total damage to plant; 0=no damage) ([3]; Table B8, POST, 14 DAA, rate 0.47 g/ha): 0
- Observed (100=total damage to plant; 0=no damage) ([3]; Table B8, POST, 14 DAA, rate 0.94 g/ha): 0
- Observed (100=total damage to plant; 0=no damage) ([3]; Table B8, POST, 14 DAA, rate 1.88 g/ha): 11

SMILES: CP(=O)(O)CC[C@H](N)C(=O)O [Compound B1c, L-glufosinate/glufosinate-P, reference compound]
- Observed (100=total damage to plant; 0=no damage) ([3]; POST, 14 DAA, rate 600 g/ha): 60
